Consider nine compounds from ChEMBL document CHEMBL1201862, “PubChem BioAssay data set” (2004).

Structures are written as SMILES. The source made the active and inactive calls. Where only a bound is given, the exact number is not on record here.
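For AC50 in this document: cells exposed to compound for roughly 70 hours or longer before luminescence read.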

Chain of Peroxisome proliferator-activated receptor gamma/Nuclear receptor coactivator 3 (P37231 whole entry): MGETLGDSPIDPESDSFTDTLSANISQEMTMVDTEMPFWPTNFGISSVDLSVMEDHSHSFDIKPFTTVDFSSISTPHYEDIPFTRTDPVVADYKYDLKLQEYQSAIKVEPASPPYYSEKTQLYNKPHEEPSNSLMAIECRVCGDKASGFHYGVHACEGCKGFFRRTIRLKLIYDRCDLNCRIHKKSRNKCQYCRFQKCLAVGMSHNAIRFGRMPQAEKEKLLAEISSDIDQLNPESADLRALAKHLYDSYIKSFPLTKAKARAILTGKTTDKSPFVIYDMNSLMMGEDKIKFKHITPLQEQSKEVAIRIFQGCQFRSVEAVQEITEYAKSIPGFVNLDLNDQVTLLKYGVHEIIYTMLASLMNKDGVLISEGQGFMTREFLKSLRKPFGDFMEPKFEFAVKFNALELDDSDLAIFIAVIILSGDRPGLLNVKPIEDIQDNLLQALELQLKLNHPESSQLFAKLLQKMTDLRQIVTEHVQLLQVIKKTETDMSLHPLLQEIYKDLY
Chain of Peroxisome proliferator-activated receptor gamma/Nuclear receptor coactivator 3 (Q9Y6Q9 whole entry, further chain): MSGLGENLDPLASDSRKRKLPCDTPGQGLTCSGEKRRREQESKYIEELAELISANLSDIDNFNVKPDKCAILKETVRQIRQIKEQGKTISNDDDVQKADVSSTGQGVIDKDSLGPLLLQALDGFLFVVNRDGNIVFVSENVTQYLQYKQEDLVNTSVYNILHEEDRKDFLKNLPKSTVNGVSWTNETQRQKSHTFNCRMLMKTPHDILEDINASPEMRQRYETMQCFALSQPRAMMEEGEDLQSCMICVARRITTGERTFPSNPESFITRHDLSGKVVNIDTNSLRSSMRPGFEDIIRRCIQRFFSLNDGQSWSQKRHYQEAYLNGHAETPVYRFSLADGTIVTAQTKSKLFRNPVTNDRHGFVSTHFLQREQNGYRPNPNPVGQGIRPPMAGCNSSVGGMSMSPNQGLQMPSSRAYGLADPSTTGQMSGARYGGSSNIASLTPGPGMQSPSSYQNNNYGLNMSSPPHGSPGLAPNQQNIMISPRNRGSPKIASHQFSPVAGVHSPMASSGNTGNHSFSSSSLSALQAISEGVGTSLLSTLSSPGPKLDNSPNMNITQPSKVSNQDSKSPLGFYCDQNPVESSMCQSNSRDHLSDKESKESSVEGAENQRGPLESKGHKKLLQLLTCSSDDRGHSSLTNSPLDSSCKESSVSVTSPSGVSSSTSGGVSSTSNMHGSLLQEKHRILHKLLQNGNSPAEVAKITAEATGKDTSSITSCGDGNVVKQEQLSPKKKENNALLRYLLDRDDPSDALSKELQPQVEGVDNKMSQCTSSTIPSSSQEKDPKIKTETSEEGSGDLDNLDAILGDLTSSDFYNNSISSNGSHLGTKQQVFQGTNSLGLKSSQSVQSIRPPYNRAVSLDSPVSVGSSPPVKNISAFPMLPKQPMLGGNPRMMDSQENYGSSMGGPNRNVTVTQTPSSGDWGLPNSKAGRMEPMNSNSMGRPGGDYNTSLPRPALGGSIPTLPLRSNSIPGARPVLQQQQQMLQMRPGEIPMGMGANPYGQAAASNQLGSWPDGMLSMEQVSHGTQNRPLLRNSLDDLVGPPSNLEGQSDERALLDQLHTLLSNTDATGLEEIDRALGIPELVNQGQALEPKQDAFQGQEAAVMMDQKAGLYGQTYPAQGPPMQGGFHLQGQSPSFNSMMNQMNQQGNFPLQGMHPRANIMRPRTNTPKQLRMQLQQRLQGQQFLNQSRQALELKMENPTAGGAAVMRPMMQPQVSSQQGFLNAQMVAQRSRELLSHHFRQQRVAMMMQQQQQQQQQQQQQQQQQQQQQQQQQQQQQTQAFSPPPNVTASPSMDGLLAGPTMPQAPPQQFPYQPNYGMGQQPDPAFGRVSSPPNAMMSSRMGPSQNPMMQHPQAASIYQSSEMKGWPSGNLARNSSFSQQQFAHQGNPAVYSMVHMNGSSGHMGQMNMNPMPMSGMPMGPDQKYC
Chain of Peroxisome proliferator-activated receptor gamma/Nuclear receptor coactivator 2 (P37231 whole entry): as the sequence (P37231 whole entry) above
Chain of Peroxisome proliferator-activated receptor gamma/Nuclear receptor coactivator 2 (Q15596 whole entry, further chain): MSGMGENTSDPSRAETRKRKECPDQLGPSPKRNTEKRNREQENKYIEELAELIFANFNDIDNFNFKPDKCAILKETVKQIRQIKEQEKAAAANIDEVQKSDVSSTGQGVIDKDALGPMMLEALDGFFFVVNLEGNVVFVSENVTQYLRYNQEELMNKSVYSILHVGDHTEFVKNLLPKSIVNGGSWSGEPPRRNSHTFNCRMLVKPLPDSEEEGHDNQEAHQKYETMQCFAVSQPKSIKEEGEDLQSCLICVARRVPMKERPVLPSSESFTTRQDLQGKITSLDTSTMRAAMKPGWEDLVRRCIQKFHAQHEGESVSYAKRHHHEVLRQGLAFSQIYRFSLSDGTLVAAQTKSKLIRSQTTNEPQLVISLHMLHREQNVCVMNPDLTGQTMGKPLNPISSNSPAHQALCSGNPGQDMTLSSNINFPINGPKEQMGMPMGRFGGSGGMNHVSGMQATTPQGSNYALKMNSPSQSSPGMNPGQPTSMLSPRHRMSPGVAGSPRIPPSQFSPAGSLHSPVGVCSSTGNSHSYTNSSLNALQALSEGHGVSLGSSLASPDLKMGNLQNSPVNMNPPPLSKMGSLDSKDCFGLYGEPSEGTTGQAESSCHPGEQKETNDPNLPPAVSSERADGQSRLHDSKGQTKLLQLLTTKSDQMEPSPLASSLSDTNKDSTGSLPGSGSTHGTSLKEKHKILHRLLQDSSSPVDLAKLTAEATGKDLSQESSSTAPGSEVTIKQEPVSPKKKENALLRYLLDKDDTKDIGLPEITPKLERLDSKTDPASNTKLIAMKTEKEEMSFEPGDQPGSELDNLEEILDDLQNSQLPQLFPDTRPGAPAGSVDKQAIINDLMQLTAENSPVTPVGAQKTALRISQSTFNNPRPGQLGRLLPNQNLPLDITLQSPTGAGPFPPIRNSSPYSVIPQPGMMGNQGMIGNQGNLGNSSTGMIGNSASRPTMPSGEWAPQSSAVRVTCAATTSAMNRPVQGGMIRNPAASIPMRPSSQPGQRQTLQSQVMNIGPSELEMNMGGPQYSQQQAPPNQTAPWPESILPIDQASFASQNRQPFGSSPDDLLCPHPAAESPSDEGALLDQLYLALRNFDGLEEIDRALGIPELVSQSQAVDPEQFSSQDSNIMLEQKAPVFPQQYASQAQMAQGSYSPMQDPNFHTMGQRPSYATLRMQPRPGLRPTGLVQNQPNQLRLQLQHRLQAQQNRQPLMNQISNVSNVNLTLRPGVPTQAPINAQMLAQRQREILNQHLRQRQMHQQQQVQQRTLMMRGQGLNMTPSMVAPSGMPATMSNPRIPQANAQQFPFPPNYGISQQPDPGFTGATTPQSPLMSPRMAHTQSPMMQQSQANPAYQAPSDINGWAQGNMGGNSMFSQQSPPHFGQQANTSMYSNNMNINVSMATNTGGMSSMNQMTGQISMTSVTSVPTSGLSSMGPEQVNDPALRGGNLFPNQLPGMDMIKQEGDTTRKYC

One experiment concerns the target Peroxisome proliferator-activated receptor gamma/Nuclear receptor coactivator 3 (Homo sapiens, UniProt P37231). Format: functional.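 Also: agonist potency for raising coactivator recruitment to the receptor.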
Conditions: not given
Turning to `O=C(CSc1ncnc2c1nnn2-c1ccc(F)cc1)NCc1ccco1`, the EC50 is recorded as > 79.4 µM (not active).

`O=C(CCC1CCCN(C(=O)C2=CCCCC2)C1)N1CCN(c2ccccn2)CC1` (configuration not stated): the EC50 was > 79.4 µM (not active).

For the compound `CCc1nnc(NS(=O)(=O)c2ccc(NC(=S)NC(=O)/C=C/c3cccs3)cc2)s1`, the EC50 is > 79.4 µM (not active).

The target of another experiment is T1, Calpain-2 catalytic subunit (Sus scrofa, UniProt P43367).
T1 sequence (P43367 whole entry): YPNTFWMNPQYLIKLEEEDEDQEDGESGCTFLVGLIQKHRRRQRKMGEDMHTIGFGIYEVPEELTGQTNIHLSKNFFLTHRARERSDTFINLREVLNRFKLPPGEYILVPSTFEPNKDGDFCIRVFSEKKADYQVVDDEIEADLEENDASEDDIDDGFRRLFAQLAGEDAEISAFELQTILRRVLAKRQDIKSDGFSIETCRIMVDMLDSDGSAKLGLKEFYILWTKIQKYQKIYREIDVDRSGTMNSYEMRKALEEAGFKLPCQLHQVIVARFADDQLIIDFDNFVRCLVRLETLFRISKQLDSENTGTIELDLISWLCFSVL
The experiment in a line: m-calpain protease blockers, concentration series – biochemical, fluorogenic peptide substrate, dose response (AID 1420).
Conditions: not given
Format: functional.
`Clc1ccc(-c2nnnn2-c2ccc(Cl)c(Cl)c2)cc1Cl`: the IC50 is < 0.4 µM (not active).

The test system of another experiment is Streptococcus. Description: GAS UMAA2166 growth inhibition – luminescence, BacTiterGlo, counter-screen for streptokinase expression inhibitor project, dose response (AID 1915).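 Also: potency for reduction of bacterial viability or growth.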
Conditions: not given
Format: functional, organism-based.
Take `Clc1ccc(-c2nnnn2-c2ccc(Cl)c(Cl)c2)cc1Cl`: the EC50 is on record as > 150 µM (not active).

As for `Cc1csc(NC(=O)COCC(=O)O)c1-c1nc2ccccc2s1`, the EC50 was 22.3 µM (active).

The next experiment has as its target Peroxisome proliferator-activated receptor gamma/Nuclear receptor coactivator 2 (Homo sapiens, UniProt P37231). Format: functional.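 Also: agonist potency for raising coactivator recruitment to the receptor.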
Conditions: not given
For `O=C(CSc1ncnc2c1nnn2-c1ccc(F)cc1)NCc1ccco1`, the EC50 is reported as > 79.4 µM (not active).

Regarding `O=C(CCC1CCCN(C(=O)C2=CCCCC2)C1)N1CCN(c2ccccn2)CC1` (configuration not stated), the EC50 is reported as > 79.4 µM (not active).

On to `CCc1nnc(NS(=O)(=O)c2ccc(NC(=S)NC(=O)/C=C/c3cccs3)cc2)s1`, for which the EC50 is > 79.4 µM (not active).

Test system in another experiment: not listed separately
The experiment in a line: HIV-1 Vif–A3G interaction blockers – biochemical, TR-FRET, GST-Vif 1-94, biotin-A3G peptide, dose response retest, primary screen (AID 1117319).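 Also: TR-FRET signal of purified GST-Vif binding a biotinylated A3G peptide; inhibitors lower the FRET signal by blocking Vif and A3G binding.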 Format: functional.
Conditions: not given
`Clc1ccc(-c2nnnn2-c2ccc(Cl)c(Cl)c2)cc1Cl`: the IC50 was > 100 µM (active).

The target in another experiment is T2, Leucine aminopeptidase (Plasmodium falciparum 3D7, UniProt Q8IL11).
T2 sequence (Q8IL11 whole entry): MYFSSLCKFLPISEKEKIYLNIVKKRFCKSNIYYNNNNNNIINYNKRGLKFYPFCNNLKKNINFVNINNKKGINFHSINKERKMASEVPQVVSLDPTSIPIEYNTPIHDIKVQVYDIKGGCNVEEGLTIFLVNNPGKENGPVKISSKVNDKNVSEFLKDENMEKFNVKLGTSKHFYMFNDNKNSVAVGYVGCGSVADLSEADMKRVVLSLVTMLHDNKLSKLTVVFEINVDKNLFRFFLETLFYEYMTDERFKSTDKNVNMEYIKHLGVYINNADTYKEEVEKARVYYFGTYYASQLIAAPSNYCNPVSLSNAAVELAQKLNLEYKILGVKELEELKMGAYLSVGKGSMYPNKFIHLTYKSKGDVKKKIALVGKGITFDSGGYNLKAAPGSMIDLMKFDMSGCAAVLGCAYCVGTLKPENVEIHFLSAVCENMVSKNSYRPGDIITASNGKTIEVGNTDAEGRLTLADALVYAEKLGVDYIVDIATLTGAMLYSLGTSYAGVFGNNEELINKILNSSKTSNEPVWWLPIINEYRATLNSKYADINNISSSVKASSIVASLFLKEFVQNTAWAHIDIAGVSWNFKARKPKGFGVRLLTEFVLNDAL
The experiment in a line: P. falciparum M17LAP inhibitors, primary screen, biochemical, fluorogenic H-Leu-NHMec substrate, 1536-well (AID 1619). Format: functional.
Conditions: not given
With `Cc1csc(NC(=O)COCC(=O)O)c1-c1nc2ccccc2s1`, the IC50 is 35.1 µM (active).

Consider `CCc1nnc(NS(=O)(=O)c2ccc(NC(=S)NC(=O)/C=C/c3cccs3)cc2)s1`, for which the IC50 is 9.13 µM (active).

Turning to `CCCSc1nnc(NC(=O)c2nc(SC)ncc2Cl)s1`, the IC50 is 34.2 µM (active).

In another experiment the test system is Streptococcus sp. 'group A'. The experiment in a line: Streptococcus pyogenes SK(-)GAS viability under kanamycin – luminescence, BacTiterGlo, confirmation, counter-screen for streptokinase expression inhibitor project, dose response (AID 1900). Format: functional, organism-based.
Conditions: not given
Consider `Clc1ccc(-c2nnnn2-c2ccc(Cl)c(Cl)c2)cc1Cl`, for which the EC50 is 9.57 µM (active).

Turning to `Cc1csc(NC(=O)COCC(=O)O)c1-c1nc2ccccc2s1`, the EC50 was 5.48 µM (active).

The next experiment concerns the target T3, Streptokinase A (Streptococcus pyogenes serotype M1, UniProt P10520).
T3 sequence (P10520 whole entry): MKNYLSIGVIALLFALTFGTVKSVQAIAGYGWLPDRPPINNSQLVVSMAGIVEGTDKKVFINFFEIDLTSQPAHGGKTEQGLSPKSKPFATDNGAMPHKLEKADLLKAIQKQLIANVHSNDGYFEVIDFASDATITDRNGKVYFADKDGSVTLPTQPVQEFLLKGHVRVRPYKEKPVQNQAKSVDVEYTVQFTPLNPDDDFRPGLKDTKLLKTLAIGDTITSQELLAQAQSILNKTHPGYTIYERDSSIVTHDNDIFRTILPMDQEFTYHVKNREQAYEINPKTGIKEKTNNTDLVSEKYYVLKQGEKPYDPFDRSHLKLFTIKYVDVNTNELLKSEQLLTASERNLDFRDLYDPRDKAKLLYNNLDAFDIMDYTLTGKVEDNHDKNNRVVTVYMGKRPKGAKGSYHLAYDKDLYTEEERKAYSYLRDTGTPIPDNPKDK
The experiment in a line: viability-normalized secreted streptokinase activity reduction – plasminogen activation absorbance, OD405, dose response (AID 1914).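 Also: secreted streptokinase activity via plasminogen activation per viability signal from cell pellet.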 Format: functional, Streptococcus pyogenes M1 GAS.
Conditions: not given
On to `Clc1ccc(-c2nnnn2-c2ccc(Cl)c(Cl)c2)cc1Cl`, for which the EC50 was 8.28 µM (active).

Turning to `Cc1csc(NC(=O)COCC(=O)O)c1-c1nc2ccccc2s1`, the EC50 is > 150 µM (not active).

Test system in another experiment: not listed separately
The experiment in a line: Luminescence Cell-Based Dose Retest to Confirm Inhibitors of Cancer Stem Cells. [Related pubchem assays (depositor defined):AID2717, AID2721]. Format: functional, Homo sapiens. The following applies: Homo sapiens.
As for `Clc1ccc(-c2nnnn2-c2ccc(Cl)c(Cl)c2)cc1Cl`, the AC50 was 3.97 µM (active).

The next experiment concerns the target Peroxisome proliferator-activated receptor gamma/Nuclear receptor coactivator 1 (Homo sapiens, UniProt P37231). Format: functional.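 Also: agonist potency as compounds enhance coactivator SRC-1 recruitment to PPARgamma.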
Conditions: not given
Take `O=C(CSc1ncnc2c1nnn2-c1ccc(F)cc1)NCc1ccco1`: the EC50 is listed as > 79.4 µM (not active).

Take `O=C(CCC1CCCN(C(=O)C2=CCCCC2)C1)N1CCN(c2ccccn2)CC1` (configuration not stated): the EC50 is recorded as > 79.4 µM (not active).

On to `CCc1nnc(NS(=O)(=O)c2ccc(NC(=S)NC(=O)/C=C/c3cccs3)cc2)s1`, for which the EC50 is > 79.4 µM (not active).

In the next experiment the target is T4, Aminopeptidase N (Plasmodium falciparum FcB1/Columbia, UniProt O96935).
T4 sequence (O96935 whole entry): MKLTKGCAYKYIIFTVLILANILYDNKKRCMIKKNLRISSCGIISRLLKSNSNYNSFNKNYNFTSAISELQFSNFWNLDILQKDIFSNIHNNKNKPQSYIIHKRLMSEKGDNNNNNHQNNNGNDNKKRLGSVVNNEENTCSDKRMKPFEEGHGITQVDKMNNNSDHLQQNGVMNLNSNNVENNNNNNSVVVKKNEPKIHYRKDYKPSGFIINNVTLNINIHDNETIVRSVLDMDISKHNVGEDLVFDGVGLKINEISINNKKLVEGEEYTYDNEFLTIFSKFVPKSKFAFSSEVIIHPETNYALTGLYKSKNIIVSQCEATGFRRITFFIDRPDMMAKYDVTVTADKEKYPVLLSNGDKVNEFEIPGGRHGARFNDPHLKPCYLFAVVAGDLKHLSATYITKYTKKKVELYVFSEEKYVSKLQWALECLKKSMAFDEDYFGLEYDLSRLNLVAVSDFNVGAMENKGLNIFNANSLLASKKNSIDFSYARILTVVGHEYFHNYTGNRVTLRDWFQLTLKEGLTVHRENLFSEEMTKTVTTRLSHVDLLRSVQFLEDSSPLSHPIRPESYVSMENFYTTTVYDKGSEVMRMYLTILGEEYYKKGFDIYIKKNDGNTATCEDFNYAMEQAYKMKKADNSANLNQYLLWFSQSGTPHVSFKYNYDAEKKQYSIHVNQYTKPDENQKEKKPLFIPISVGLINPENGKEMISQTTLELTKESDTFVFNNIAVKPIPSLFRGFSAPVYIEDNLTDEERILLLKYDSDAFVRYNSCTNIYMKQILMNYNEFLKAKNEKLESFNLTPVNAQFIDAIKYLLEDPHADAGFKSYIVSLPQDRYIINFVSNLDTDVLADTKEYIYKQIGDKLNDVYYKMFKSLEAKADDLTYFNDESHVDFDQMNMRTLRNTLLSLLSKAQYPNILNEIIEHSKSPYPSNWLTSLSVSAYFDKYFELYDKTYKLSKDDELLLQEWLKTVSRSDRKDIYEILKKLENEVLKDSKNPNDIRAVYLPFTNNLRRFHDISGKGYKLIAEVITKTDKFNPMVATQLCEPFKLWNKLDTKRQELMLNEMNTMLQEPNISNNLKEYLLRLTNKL
The experiment in a line: malaria alanyl aminopeptidase activity blockers – biochemical, fluorogenic H-Leu-NHMec substrate, 1536-well (AID 1445). More on the design: species or system Plasmodium falciparum 3D7, 3D7.
Conditions: not given
As to `Cc1ccc2c(c1)c1nnc(SCC(=O)Nc3cccc(Cl)c3C)nc1n2CC(=O)O`, the IC50 is 8.42 µM (active).

In the case of `Cc1csc(NC(=O)COCC(=O)O)c1-c1nc2ccccc2s1`, the concentration for half-maximal inhibition (IC50) was 17.1 µM (active).

Consider `CCc1nnc(NS(=O)(=O)c2ccc(NC(=S)NC(=O)/C=C/c3cccs3)cc2)s1`, for which the IC50 is 79.4 µM (active).

With `C=CCN1C(=O)/C(=c2\sc3nc(=O)c(Cc4ccccc4Cl)nn3c2=O)c2ccccc21`, the IC50 is 57.4 µM (active).

Consider `CC1(C)OC2OC(C(=O)N/N=C/c3cc(Br)ccc3O)C3OC(C)(C)OC3C2O1` (configuration not stated), for which the IC50 was 51.7 µM (active).

As for `CCCSc1nnc(NC(=O)c2nc(SC)ncc2Cl)s1`, the IC50 was 109 µM (active).
